Results from ChEMBL document CHEMBL1140641, “Novel ebselen-porphyrin conjugates: synthesis and nucleic acid interaction study” (Bioorg Med Chem Lett, 2007).

Assays:
Assay type in all cases: nucleic-acid assay
Parameters in all cases: scale not given: the % may be the effect or the level left
Conditions in all cases: Escherichia coli
Nucleic Acid [1] = test: DNA photocleavage activity assessed as pBluescript form II levels at 1 uM by plasmid DNA relaxation assay
Nucleic Acid [2] = test: DNA photocleavage activity assessed as pBluescript form II levels at 20 uM by plasmid DNA relaxation assay
Nucleic Acid [3] = test: DNA photocleavage activity assessed as pBluescript form II levels at 5 uM by plasmid DNA relaxation assay
Nucleic Acid [4] = test: DNA photocleavage activity assessed as pBluescript form II levels at 10 uM by plasmid DNA relaxation assay

## O=c1c2ccccc2[se]n1-c1ccc(-c2c3nc(c(-c4ccccc4)c4ccc([nH]4)c(-c4ccccc4)c4nc(c(-c5ccccc5)c5ccc2[nH]5)C=C4)C=C3)cc1
Nucleic Acid [1]
  Activity: 12%
Nucleic Acid [2]
  Activity: 21%
Nucleic Acid [3]
  Activity: 16%
Nucleic Acid [4]
  Activity: 18%
